Assay results published in patent US8951500B2, “13C-MR imaging or spectroscopy of cell death” (GE Healthcare AS, priority 2006, dated 2015).
Values belong to the compound of their own block, whether it stands above or below them.

Columns and labels:
[1] = system: EL4 murine lymphoma cells; assay: 13C-MR spectroscopy of hyperpolarised 13C-label flux between pyruvate and lactate in EL4 cell suspensions; type: cell-based; details: co-treatment of cells with the cell death inducer
Protocol: EL4 murine lymphoma cells (10^8 cells) were treated with 15 μM etoposide (PCH Pharmachemie BV, Harleem), a compound which is known to induce cell death after 16 h exposure. A separate set of cells was treated for 16 hours with 15 μM etoposide plus 20 mM nicotinamide, a known PARP inhibitor. Cell death (apoptosis and necrosis) was confirmed by acridine orange and propidium iodide staining. The cells were washed 3 times with RPMI 1640 growth medium containing 10% FCS at 37° C. and to 2 ml of the etoposide- and etoposide/nicotinamide treated EL4 cell suspension 2 ml of the imaging medium according to Example 5 were added. The final cell suspension thus contained 30 mM hyperpolarised ^13C1-pyruvate and 37.5 mM lactate.
^13C-signal intensities from ^13C-pyruvate and ^13C-lactate in etoposide-treated EL4 cell suspensions as described in 6.1 were followed over a time period of 240 seconds from the time of addition of the imaging medium. […]
^13C-signal intensities from ^13C-pyruvate and ^13C-lactate in etoposide-treated and etoposide/nicotinamide treated EL4 cell suspensions as described in 6.1 were followed over a time period of 240 seconds from the time of addition of the imaging medium. […] The data were fit to a two-site exchange model based on the modified Bloch equations, and the rate constants for the forward and reverse exchange ^13C-fluxes were determined. […]

[2] = system: EL-4 murine lymphoma cells; assay: 31P-NMR measurements on acid-extracts of EL-4 cells induced to undergo cell death; type: cell-based
Description: Loss of NAD(H) can be explained by DNA-damage induced activation of the enzyme poly-ADP-ribose polymerase (PARP), which […] various proteins and uses NAD^+ as a substrate.

[3] = T1 relaxation of 13C1-pyruvate in human full blood; type: physicochemical; details: human full blood at 37° C.
Description: The amount of alanine, bicarbonate and lactate is dependent on the metabolic status of the tissue under investigation.
The isotopic enrichment of the hyperpolarised ^13C-pyruvate used in the method of the invention is preferably at least 75%, more preferably at least 80% and especially preferably at least 90%, an isotopic enrichment of over 90% being most preferred. Ideally, the enrichment is 100%. ^13C-pyruvate used in the method of the invention may be isotopically enriched at the C1-position (in the following denoted ^13C1-pyruvate), at the C2-position (in the following denoted ^13C2-pyruvate), at the C3-position (in the following denoted ^13C3-pyruvate), at the C1- and the C2-position (in the following denoted ^13C1,2-pyruvate), at the C1- and the C3-position (in the following denoted ^13C1,3-pyruvate), at the C2- and the C3-position (in the following denoted ^13C2,3-pyruvate) or at the C1-, C2- and C3-position (in the following denoted ^13C1,2,3-pyruvate). Isotopic enrichment at the C1-position is preferred since ^13C1-pyruvate has a higher T1 relaxation in human full blood at 37° C. (about 42 s) than ^13C-pyruvate which is isotopically enriched at other C-positions.

[4] = system: EL-4 tumour
Protocol: (§1) Lymphoma tumours were produced in mice by subcutaneous implantation of EL4 cells. The mice were treated with an i.p. injection of 67 mg/kg etoposide. Tumour cell death following etoposide treatment was assessed histologically. Non-etoposide treated mice were used as control.
(§2) The time-dependent changes in the tumour signals from lactate and pyruvate were fit to the exchange model to obtain the apparent rate constants, and spin lattice relaxation times (FIG. 3B). The first 10-15 s of data acquisition were lost since this was the time taken to complete the injection and insert the ^13C surface coil probe assembly, containing the animal, into the imaging magnet.
(§3) The data were collected 20 h after treatment of the animals with etoposide. The increased SDs after 40 s reflect the decrease in signal-to-noise on the lactate and pyruvate resonances resulting from the loss of polarisation. […] These extracts were made immediately following completion of the MR experiments.
(§4) In another series of experiments, animals were etoposide-treated 24 h after imaging and then 24 h after etoposide treatment a second set of images were acquired, thus each animal could serve as its own control. However, as with the other experiments, there was little variation within the groups and the group results are presented.

[5] = system: EL-4 tumour; assay: Tumour cell death (histology) and tumour volume (1H spin echo images) in EL4 lymphoma-bearing mice; type: in vivo
[6] = system: LDH; assay: Enzyme activity measurements on protein extracts from freeze-clamped tumours; type: in vivo, mice; details: drug-treated tumours, n=3
[7] = system: EL-4 tumour; assay: 1H NMR measurements on perchloric acid-extracts of freeze-clamped tumours; type: in vivo, mice; details: etoposide-treated tumours, extracts made immediately after MR experiments, n=8
Protocol: The data were collected 20 h after treatment of the animals with etoposide. […] These extracts were made immediately following completion of the MR experiments.

[8] = system: EL-4 tumour; assay: In vivo 13C-MR spectroscopy of pyruvate-lactate label flux in EL4 tumours after i.v. hyperpolarised 13C1-pyruvate
Protocol: as §1, §2, §3, §4

[9] = etoposide-treated EL-4 cells compared to untreated control cells

SMILES: NC(=O)c1cccc(N)c1 [3-aminobenzamide]
ability to transfer hyperpolarised 13C-label between pyruvate and lactate pools [1]: maintained their ability to transfer the hyperpolarised ^13C-label between the pyruvate and lactate pools | effect of PARP inhibition on loss of NAD(H) and increase in FBP concentration in dying cells ([2]; 10 mM 3-aminobenzamide): inhibited the loss of NAD(H) and the increase in FBP concentration

T1 relaxation [3]: about 42 s
SMILES: CC(=O)C(=O)O [^13C1-pyruvate]

SMILES: COc1cc([C@@H]2c3cc4c(cc3[C@@H](O[C@@H]3O[C@@H]5CO[C@@H](C)O[C@H]5[C@H](O)[C@H]3O)[C@H]3COC(=O)[C@H]23)OCO4)cc(OC)c1O [etoposide]
decrease in flux ([4]; following versus before treatment, n=4): 39% | rate constant ([4]; iv, 24 h): 0.040 ± 0.012 s⁻¹ | cell death ([5]; 24 h after drug treatment, 67 mg/kg i.p., n=3): 37.0±3.8% | tumour volume ([5]; treated tumours, multi-slice 1H spin echo images, n=8): 1.3±0.2 cm^3 | LDH activity [6]: 100±20 units/g wet wt. | lactate/pyruvate ratio by 1H NMR [7]: 5.1±2.0 | rate constant kP^app ([8]; etoposide-treated tumours, 20 h after treatment, n=8): 0.056 ± 0.005 s⁻¹ | calculated equilibrium lactate/pyruvate ratio (L∞/P∞) ([8]; etoposide-treated tumours, n=8): 2.7±0.4 | decrease in the rate constant kP^app ([8]; versus control tumours, data collected 20 h after treatment): approximately 25% | intensity of the resonances from NAD(H) [2, 9]: a decrease in the intensity of the resonances from NAD(H) | resonances from fructose-1,6-bisphosphate (FBP) [2, 9]: an increase in the resonances from the glycolytic intermediate, fructose-1,6-bisphosphate (FBP)

SMILES: NC(=O)c1cccnc1 [nicotinamide]
ability to transfer hyperpolarised 13C-label between pyruvate and lactate pools [1]: maintained their ability to transfer the hyperpolarised ^13C-label between the pyruvate and lactate pools | effect of PARP inhibition on loss of NAD(H) and increase in FBP concentration in dying cells ([2]; 20 mM nicotinamide): inhibited the loss of NAD(H) and the increase in FBP concentration
